Measured values reported in publication PMC4685943 (ACS Chemical Biology, 2015).

How the values were obtained:
DDR2 = molecular target: T1, DDR2 (Homo sapiens, UniProt Q16832); experiment: DDR2 phosphorylation, IP/Western blot in 293T cells expressing wild type DDR2; format: cell-based; conditions: 293T cells expressing wild type DDR2, IP anti-DDR2 / blot 4G10
T1 sequence (Q16832 22-855): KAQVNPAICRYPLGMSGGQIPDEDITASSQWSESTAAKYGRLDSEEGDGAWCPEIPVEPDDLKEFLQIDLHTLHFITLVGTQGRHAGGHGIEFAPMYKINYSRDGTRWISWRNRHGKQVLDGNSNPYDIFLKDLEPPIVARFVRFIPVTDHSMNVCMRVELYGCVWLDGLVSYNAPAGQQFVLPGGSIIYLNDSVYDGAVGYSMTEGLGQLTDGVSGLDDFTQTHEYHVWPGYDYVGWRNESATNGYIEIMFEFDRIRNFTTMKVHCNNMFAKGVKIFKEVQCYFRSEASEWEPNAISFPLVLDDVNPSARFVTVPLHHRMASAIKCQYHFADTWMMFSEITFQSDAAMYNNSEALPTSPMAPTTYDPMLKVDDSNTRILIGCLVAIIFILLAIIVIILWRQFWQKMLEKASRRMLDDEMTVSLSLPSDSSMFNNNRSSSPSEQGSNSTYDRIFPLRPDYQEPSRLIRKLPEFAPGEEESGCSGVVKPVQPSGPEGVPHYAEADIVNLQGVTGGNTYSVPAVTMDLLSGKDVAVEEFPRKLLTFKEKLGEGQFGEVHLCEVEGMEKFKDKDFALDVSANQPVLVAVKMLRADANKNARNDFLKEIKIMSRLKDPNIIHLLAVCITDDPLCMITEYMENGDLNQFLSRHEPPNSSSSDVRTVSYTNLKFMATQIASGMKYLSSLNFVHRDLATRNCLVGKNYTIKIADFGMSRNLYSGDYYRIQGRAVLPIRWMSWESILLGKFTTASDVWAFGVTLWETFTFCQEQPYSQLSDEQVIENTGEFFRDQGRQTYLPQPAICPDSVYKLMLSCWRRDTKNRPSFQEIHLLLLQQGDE

NCI-H2286 and HCC-366 = experiment: Cell proliferation assays in DDR2 mutated cell lines; format: cell-based; conditions: NCI-H2286 and HCC-366, 5 days, single agent

Row | Compound | effect on p-DDR2 (DDR2) | antiproliferative potency in DDR2 mutated cell lines (NCI-H2286 and HCC-366)
1 | Cc1nc(Nc2ncc(C(=O)Nc3c(C)cccc3Cl)s2)cc(N2CCN(CCO)CC2)n1 [Dasatinib] | potent inhibition | 
2 | CN1CCN(CCOc2cc(OC3CCOCC3)c3c(Nc4c(Cl)ccc5c4OCO5)ncnc3c2)CC1 [Saracatinib] |  | greater inhibition of cell proliferation as compared to compound 1
